The record followed here is ChEMBL document CHEMBL1687697 (ACS Med Chem Lett, 2010).

In assay [1] the target is Signal transducer and activator of transcription 3 (Homo sapiens) (UniProt P40763). The assay is described as follows: Inhibition of STAT3 in human HeLa cells at 5 uM after 24 hrs by luciferase reporter gene assay. Format: cell-based. In general terms: Reporter assays use an easily measured gene product as a stand-in for the process of interest.
The target is the same in assay [2]. The assay is described as follows: Inhibition of STAT3 in human HeLa cells after 24 hrs by luciferase reporter gene assay. Format: cell-based.

Activity calls are given as the source filed them. No cut-off for these calls is given here.

Sequence of Signal transducer and activator of transcription 3 (Homo sapiens) (P40763 whole entry): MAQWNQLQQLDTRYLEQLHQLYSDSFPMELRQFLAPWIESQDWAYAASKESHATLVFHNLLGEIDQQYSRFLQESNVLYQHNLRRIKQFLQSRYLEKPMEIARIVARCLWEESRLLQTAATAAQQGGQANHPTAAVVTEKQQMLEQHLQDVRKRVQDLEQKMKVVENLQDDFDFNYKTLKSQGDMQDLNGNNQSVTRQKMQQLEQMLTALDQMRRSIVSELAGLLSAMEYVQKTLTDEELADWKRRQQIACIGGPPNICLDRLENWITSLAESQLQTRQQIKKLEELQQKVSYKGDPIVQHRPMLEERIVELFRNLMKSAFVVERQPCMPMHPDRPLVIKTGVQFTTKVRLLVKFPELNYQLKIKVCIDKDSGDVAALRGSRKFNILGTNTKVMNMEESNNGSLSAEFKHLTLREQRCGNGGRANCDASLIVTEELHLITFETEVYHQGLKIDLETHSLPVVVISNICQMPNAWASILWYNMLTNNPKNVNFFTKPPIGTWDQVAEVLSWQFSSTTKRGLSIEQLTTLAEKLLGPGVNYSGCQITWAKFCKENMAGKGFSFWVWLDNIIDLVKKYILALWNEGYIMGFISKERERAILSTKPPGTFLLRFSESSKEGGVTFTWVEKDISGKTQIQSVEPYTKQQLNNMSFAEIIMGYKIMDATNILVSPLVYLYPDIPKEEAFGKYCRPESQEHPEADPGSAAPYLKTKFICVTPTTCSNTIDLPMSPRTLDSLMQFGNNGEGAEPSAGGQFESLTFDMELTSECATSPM

For the compound `CCOC(=O)c1c(CSc2ccccc2)n(C)c2cc(Br)c(O)c(CN(C)C)c12`, in assay [1], the inhibition result was “inactive”.
For the compound `COc1ccc(-c2cc(=O)c3c(O)cc(O[C@@H]4O[C@H](CO[C@@H]5O[C@@H](C)[C@H](O)[C@@H](O)[C@H]5O)[C@@H](O)[C@H](O)[C@H]4O)cc3o2)cc1O`, the inhibition result in assay [2] is “inactive”.
